According to ChEMBL document CHEMBL1201862, “PubChem BioAssay data set” (2004):
The source made the active and inactive calls. Rule as the data show it, for most assays here: actives have a measured EC50 and inactives only a lower limit.

Assays:
[1] = NIH-3T3 fibroblast cytotoxicity, dose response, cytotoxicity control, cell-based, fluorescence, Alamar Blue, secondary assay (AID 2327); format: functional;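 also: NIH-3T3 mouse fibroblasts cultured with fluconazole at 8 µg/mL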
[2] = fluconazole-exposed Candida albicans growth modulators – fluorescence, retest, confirmation (AID 2467); format: functional, cell-based
[3] = biological target: T1, Zinc finger protein mex-5 (Caenorhabditis elegans, UniProt Q9XUB2); test: potency of MEX-5 RNA-binding blockers – biochemical, C. elegans, fluorescence polarization, dose response (AID 1960)
T1 sequence (Q9XUB2 whole entry): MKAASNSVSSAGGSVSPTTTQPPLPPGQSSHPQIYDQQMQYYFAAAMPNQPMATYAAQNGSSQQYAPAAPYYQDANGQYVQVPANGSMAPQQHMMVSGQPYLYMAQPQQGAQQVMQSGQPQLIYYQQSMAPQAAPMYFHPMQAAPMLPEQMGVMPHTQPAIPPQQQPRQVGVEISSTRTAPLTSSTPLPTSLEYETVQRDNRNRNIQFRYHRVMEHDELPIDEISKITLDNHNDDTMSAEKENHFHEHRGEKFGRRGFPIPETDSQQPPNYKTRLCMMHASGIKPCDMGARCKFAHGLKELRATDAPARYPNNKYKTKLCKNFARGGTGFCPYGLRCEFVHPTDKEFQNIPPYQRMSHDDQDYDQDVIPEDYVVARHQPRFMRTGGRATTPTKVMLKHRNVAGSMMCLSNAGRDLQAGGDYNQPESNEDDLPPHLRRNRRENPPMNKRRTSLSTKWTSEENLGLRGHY

[4] = biological target: Genome polyprotein (dengue virus type 2, UniProt P29990); test: flavivirus cap methylation enzyme inhibition – biochemical, confirmation dose response, primary screen (AID 588689); format: functional
Sequence of Genome polyprotein (P29990 2492-3391 limits assumed): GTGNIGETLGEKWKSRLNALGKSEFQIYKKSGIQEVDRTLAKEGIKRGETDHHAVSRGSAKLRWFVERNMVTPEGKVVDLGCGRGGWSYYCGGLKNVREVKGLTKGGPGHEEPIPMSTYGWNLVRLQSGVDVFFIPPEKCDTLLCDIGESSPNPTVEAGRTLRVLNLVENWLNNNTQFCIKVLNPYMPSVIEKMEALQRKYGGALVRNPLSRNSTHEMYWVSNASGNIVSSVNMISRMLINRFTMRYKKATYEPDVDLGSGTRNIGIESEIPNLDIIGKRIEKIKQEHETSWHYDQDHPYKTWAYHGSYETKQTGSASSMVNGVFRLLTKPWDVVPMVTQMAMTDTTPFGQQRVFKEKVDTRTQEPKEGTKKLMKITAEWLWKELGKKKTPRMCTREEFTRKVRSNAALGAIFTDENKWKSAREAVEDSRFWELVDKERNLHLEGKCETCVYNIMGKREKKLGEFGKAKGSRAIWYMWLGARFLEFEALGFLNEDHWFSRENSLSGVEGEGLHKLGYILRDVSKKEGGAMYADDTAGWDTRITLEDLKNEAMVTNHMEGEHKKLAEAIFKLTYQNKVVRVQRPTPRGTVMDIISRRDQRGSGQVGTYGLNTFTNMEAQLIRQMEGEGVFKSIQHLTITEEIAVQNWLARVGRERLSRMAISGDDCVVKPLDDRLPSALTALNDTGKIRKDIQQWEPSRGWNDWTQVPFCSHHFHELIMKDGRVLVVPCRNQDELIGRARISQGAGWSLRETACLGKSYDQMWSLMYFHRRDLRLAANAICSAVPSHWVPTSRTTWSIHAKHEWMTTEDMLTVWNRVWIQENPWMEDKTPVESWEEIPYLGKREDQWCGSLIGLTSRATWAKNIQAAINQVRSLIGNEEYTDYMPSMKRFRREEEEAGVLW

[5] = biological target: T2, RNA-binding protein pos-1 (Caenorhabditis elegans, UniProt G5EF15); test: disruptors of C. elegans POS-1 RNA interaction – biochemical, fluorescence polarization, dose response (AID 1964);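 also: purified POS-1 fused to maltose binding protein made in E. coli; potency of compounds blocking POS-1 binding to fluorescent RNA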
T2 sequence (G5EF15 whole entry): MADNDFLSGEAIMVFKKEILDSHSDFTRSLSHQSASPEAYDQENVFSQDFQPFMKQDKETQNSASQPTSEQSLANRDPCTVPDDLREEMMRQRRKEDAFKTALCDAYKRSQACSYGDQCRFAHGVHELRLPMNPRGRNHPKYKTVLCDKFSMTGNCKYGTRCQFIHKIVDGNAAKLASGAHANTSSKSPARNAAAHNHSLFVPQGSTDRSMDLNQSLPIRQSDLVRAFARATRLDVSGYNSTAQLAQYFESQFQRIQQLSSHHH

[6] = biological target: Fatty acid synthase (Homo sapiens, UniProt P49327); test: inhibition of human FAS-TE enzyme activity – biochemical, kinetic fluorescence intensity, dose response (AID 624326); format: functional;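 also: rate of fluorescence rise from hydrolysis of a fluorogenic O-methyl fluorescein ester substrate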
Sequence of Fatty acid synthase (P49327 whole entry): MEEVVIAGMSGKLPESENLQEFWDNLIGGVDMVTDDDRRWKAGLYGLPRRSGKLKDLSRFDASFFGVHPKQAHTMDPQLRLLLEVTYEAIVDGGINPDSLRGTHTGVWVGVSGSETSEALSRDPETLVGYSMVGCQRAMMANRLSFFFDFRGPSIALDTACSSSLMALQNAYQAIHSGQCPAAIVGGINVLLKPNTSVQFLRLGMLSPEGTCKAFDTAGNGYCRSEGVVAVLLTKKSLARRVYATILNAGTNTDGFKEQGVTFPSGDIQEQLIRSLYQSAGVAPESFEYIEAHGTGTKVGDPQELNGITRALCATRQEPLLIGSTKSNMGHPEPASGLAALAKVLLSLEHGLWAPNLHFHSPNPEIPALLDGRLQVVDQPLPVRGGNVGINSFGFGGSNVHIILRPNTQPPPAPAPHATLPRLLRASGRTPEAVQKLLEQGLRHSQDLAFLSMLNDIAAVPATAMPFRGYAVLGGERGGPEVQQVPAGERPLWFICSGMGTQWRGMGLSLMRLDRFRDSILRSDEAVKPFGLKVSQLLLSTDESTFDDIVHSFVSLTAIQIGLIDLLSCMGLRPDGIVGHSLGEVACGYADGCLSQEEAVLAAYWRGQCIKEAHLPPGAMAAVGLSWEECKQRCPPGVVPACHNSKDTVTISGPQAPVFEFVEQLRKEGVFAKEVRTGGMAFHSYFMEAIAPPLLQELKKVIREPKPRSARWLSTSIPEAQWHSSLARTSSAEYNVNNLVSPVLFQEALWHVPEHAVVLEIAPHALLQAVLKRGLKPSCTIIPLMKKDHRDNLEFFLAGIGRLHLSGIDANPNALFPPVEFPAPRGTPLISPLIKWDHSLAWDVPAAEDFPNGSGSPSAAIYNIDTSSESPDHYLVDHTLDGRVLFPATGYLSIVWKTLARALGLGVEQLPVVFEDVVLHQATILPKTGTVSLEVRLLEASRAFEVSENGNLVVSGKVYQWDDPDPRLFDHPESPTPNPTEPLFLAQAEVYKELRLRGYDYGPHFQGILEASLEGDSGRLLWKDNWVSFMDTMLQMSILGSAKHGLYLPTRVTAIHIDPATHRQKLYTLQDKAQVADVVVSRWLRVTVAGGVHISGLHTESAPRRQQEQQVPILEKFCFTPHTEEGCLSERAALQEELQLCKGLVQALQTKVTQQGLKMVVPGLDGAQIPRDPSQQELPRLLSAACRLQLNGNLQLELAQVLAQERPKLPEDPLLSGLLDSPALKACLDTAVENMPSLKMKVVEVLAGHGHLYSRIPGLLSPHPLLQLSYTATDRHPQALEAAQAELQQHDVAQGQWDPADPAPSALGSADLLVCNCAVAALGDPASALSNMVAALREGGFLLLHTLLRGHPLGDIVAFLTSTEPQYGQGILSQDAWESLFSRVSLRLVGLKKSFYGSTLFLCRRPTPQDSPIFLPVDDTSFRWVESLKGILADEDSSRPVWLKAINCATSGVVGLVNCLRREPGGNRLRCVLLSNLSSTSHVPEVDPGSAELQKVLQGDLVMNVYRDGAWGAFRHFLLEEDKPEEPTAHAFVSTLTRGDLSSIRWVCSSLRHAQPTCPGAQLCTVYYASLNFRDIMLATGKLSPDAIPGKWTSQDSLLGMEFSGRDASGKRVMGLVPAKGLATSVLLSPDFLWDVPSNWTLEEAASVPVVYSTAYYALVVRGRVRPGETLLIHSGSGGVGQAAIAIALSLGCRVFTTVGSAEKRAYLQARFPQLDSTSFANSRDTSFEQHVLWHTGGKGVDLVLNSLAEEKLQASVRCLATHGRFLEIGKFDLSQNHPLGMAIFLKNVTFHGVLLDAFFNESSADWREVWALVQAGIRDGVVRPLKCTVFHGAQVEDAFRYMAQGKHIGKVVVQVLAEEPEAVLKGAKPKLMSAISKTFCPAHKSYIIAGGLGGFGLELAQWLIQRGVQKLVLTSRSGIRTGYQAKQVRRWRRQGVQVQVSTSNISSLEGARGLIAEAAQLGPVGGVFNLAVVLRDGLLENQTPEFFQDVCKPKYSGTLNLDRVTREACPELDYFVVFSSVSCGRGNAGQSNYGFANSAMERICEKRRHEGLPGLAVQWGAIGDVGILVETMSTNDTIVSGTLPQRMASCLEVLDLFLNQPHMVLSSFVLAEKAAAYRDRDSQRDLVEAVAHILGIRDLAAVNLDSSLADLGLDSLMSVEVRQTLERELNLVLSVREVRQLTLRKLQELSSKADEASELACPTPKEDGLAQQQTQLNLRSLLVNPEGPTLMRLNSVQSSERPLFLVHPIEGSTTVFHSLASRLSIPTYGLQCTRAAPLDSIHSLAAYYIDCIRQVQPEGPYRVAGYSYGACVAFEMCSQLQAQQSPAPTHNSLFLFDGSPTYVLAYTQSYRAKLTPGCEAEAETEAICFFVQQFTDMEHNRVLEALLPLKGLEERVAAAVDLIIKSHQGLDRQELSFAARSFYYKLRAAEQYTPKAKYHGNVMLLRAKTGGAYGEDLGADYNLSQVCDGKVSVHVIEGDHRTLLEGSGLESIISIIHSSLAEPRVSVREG

[7] = biological target: T3, Heat shock factor protein 1 (Mus musculus, UniProt P38532); test: enhancement of HSF1-driven luciferase signal – cell-based, NIH3T3, luminescence, dose retest, confirmation (AID 435004); format: functional;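 also: stress induced by proteasome inhibitor MG132 added 30 min after compound; luciferase reporter driven by HSF1 response element in NIH3T3 cells; actives raise luminescence as potentiators of the MG132 stress response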
T3 sequence (P38532 whole entry): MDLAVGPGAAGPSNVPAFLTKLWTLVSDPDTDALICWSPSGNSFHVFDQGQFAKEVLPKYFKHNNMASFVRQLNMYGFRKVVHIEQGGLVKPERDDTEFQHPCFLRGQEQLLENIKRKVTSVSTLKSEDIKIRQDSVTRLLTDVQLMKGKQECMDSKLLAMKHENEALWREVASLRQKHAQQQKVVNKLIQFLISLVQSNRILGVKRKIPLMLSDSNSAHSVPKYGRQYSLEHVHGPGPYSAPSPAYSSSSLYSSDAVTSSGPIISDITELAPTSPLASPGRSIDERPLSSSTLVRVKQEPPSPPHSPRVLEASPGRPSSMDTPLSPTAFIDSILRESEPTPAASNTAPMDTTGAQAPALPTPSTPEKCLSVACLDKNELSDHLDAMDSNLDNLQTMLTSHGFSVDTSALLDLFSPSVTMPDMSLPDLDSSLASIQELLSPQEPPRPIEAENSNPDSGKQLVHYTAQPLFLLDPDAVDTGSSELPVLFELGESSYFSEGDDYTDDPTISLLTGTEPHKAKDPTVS

EC50 [7]	SMILES	EC50 [1]	EC50 [2]	further results
	CC(NC(=O)OCc1ccccc1)C(=O)Oc1cc2oc(=O)cc(-c3ccccc3)c2cc1Cl (stereo not drawn)	> 150 µM (inactive)	1.09 µM (active)	
	Oc1ccc(N=Nc2ccccc2-c2nn[nH]n2)c(O)c1			EC50 [3]: > 300 µM (not active); IC50 [4]: > 100 µM (active); EC50 [5]: > 300 µM (not active)
	O=C(NCCc1ccccc1)c1c(O)c2cccc3c2n(c1=O)CC3	> 150 µM (inactive)	> 38 µM (not active)	
	O=C(c1ccc(Cl)c([N+](=O)[O-])c1)N1CCN(c2ccccc2)CC1			IC50 [6]: 11.9 µM (active)
	C=CCn1c(COc2ccc(F)cc2)nnc1SCC(=O)Nc1cccc(S(N)(=O)=O)c1	> 160 µM (inactive)		
> 260 µM (inactive)	CCOC(=O)c1c(-c2ccc(C)o2)csc1NC(=O)CSc1nncs1			
> 260 µM (inactive)	Cc1c(Cl)c(C(=O)NC2CCCC2)nn1C			
> 260 µM (inactive)	COc1ccccc1CN1CC(C(=O)NCCc2ncccc2C)CCC1=O (stereo not drawn)			
	O=C(O)/C(=C\c1ccc(Cl)c([N+](=O)[O-])c1)c1ccc(S(=O)(=O)N2CCCCC2)s1			IC50 [4]: 81.4 µM (active)
	C=C(C)CSc1nc(O)cc(C)c1C#N	> 150 µM (inactive)	1.86 µM (active)	
	CCOC(=O)Cc1csc(NC(=O)CSc2nc(O)c3c(C)c(C(=O)O)sc3n2)n1	104 µM (active)	5.45 µM (active)	
> 260 µM (inactive)	COc1cc(-c2nnc3sc(Cc4ccc(Cl)cc4)nn23)cc(OC)c1OC			
